Measured values published in patent US20230002393A1, “CDK KINASE INHIBITOR” (BEIJING BENICALL BIOTECH CO., LTD., priority 2019, published 2023).

Experiments:
[1] = target: T1, CDK6/CyclinD1 (Homo sapiens, UniProt Q00534); assay: In vitro cell-free CDK6/CyclinD1 kinase activity assay (TR-FRET); type: biochemical; conditions: ATP at Km
T1 construct: purchased Carna 04-114
Protocol: It should be noted that the assay can also be conducted by a similar method. The assay steps in this Test Example are as follows:
The CDK6/CyclinD1 kinase activity was determined using a time-resolved fluorescence resonance energy transfer (TR-FRET) method. Measurements were performed in a reaction volume of 20 μL using 384-well assay plates. […] The reaction was stopped by adding a mixture of a peptide antibody (trade name: Cisbio, product No. 64CUSKAY) and Sa-XL665 (trade name: Cisbio, product No. 610SAXLB) diluted in HTRF KinEASE detection buffer (trade name: Cisbio, product No. 62SDBRDF, containing EDTA). After the mixture was incubated for 1 hour at room temperature, the plate was read. The TR-FRET signal was measured on a multimode plate reader (EnVision™, a multi-function microplate detector, PerkinElmer) at an excitation wavelength (λEx) of 330 nm and detection wavelengths (λEm) of 615 and 665 nm. The activity was determined by the ratio of fluorescence at 665 nm to that at 615 nm. For each compound, the enzyme activities of different concentrations of the compound were measured to determine IC50. The negative control contained no inhibitor. Two no-enzyme controls were used to determine baseline fluorescence levels. IC50 was obtained by fitting using the GraphPad 6.02 software.
8-10 concentrations were prepared for each compound, and formulated in DMSO. The stock concentration was 200× the working concentration. For example, if the working concentration was 100 nM, the corresponding concentration of the formulated stock solution was 20 μM.
In the analysis of in vitro inhibitory activity on CDK kinase, the IC50 value of each of the Example compounds and Reference Example compounds was determined.

[2] = tested on: MCF-7 cells; assay: Cell viability assay, MCF-7 cells (CellTiter-Glo, 168 h); type: cell-based; conditions: Homo sapiens, MCF7
Protocol: An in vitro cell viability assay was conducted using some Example compounds following the steps below:
1. After recovery, MCF-7 cells (obtained from the Shanghai Cell Bank of the Chinese Academy of Sciences) were cultured at 37° C., 5% CO2, and 95% humidity.
2. 8 compound solutions at different concentrations were prepared for each Example compound. 50 μL of the compound solution at each concentration was added to a 96-well black plate.
3. The cell concentration was adjusted to about 30,000 cells/mL. 100 μL of the cell suspension was added to the 96-well plate, and mixed well to a final cell density of about 3,000 cells/well.
4. The 96-well plate was incubated at 37° C., 5% CO2, and 95% humidity for 168 h, i.e., 7 days.
5. The cell survival rate was measured by the method of CellTiter-Glo® Luminescent Cell Viability Assay (Promega, Cat #G7572). The fluorescence data were read on a microplate reader (EnVision™, a multi-function microplate detector, PerkinElmer).
6. The obtained fluorescence data were analyzed using the GraphPad Prism software. The cell survival rate was calculated for each Example compound at each concentration, and the IC50 interval of each Example compound was determined.

T1 sequence (Q00534 whole entry): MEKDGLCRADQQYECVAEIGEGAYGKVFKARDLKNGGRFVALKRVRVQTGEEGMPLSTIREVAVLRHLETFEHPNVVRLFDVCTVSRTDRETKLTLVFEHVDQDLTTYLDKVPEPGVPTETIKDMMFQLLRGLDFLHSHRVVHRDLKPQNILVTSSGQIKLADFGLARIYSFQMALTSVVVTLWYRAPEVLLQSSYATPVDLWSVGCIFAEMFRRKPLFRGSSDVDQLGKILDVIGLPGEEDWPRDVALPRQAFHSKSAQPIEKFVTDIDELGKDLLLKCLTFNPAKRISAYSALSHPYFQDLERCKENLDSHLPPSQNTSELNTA
T1 sequence (P24385 whole entry partner): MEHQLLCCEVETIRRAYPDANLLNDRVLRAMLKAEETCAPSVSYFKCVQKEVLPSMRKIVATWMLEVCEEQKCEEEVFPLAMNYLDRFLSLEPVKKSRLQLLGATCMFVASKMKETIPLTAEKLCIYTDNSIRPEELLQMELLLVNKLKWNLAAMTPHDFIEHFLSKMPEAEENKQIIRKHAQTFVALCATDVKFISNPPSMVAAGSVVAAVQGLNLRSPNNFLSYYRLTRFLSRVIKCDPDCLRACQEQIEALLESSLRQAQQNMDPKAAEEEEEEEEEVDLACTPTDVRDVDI

Compound | IC50 [1] | IC50 [2]
Cc1nn(C)cc1-c1cc2cnc(Nc3ccc(N4CCNCC4)cn3)nn2c1C1=CCCC1 [Example 23] | 100 to 1000 nM | < 500 nM
N#Cc1cc2cnc(Nc3ccc(N4CCNCC4)cc3)nn2c1-c1ccc2ccccc2c1 [Example 14] | < 100 nM | < 500 nM
C1=C(c2c(-c3cnoc3)cc3cnc(Nc4ccc(N5CCNCC5)cn4)nn23)CCC1 [Example 76] | < 100 nM | 2500 to 10000 nM
C1=C(c2ccc3cnc(Nc4ccc(N5CCNCC5)cc4)nn23)CCC1 [Example 4] | 100 to 1000 nM | < 500 nM
COc1ccc(-c2c(C#N)cc3cnc(Nc4ccc(N5CCNCC5)cc4)nn23)cn1 [Example 18] | < 100 nM | < 500 nM
COc1ccc(-c2c(-c3cnn(C)c3)cc3cnc(Nc4ccc(N5CCNCC5)cn4)nn23)cc1 [Example 19] | < 100 nM | 500 to 2500 nM
N#Cc1cc2cnc(Nc3ccc(N4CCNCC4)cn3)nn2c1-c1cccnc1 [Example 27] | 100 to 1000 nM | 2500 to 10000 nM
COCCOc1ccc(-c2c(C(=O)N(C)C)cc3cnc(Nc4ccc(N5CCC6(CCNCC6)C5)cn4)nn23)cc1 [Example 50] | < 100 nM | 2500 to 10000 nM
N#Cc1cc2cnc(Nc3ccc(N4CCNCC4)cc3)nn2c1N1CCC2(CCNCC2)CC1 [Example 16] | < 100 nM | 500 to 2500 nM
C1=C(c2c(-c3cn[nH]c3)cc3cnc(Nc4ccc(N5CCNCC5)cn4)nn23)CCC1 [Example 74] | < 100 nM | < 500 nM
N#Cc1cc2cnc(Nc3ccc(N4CCNCC4)cn3)nn2c1-c1ccc(Cl)cc1 [Example 24] | < 100 nM | < 500 nM
CN(C)C(=O)c1cc2cnc(Nc3ccc(N4CCNCC4)cn3)nn2c1N1CCCCC1 [Example 31] | < 100 nM | < 500 nM
CN(C)C(=O)c1cc2cnc(Nc3ccc(N4CC5(CCNC5)C4)cn3)nn2c1C1=CCCC1 [Example 39] | < 100 nM | < 500 nM
Cc1noc(C)c1-c1cc2cnc(Nc3ccc(N4CCNCC4)cn3)nn2c1-c1ccc(F)cc1 [Example 20] | 100 to 1000 nM | 500 to 2500 nM
COc1ccccc1-c1c(C#N)cc2cnc(Nc3ccc(N4CCNCC4)cc3)nn12 [Example 10] | < 100 nM | < 500 nM
Cn1cc(-c2cc3cnc(Nc4ccc(N5CCNCC5)cn4)nn3c2C2CCCC2)cn1 [Example 71] | < 100 nM | 500 to 2500 nM
N#Cc1cc2cnc(Nc3ccc(N4CCNCC4)cc3)nn2c1-c1ccccc1 [Example 3] | < 100 nM | < 500 nM
O=C1CCCN1c1cc2cnc(Nc3ccc(N4CCNCC4)cn3)nn2c1C1=CCCC1 [Example 52] | 100 to 1000 nM | 2500 to 10000 nM
CN(C)C(=O)c1cc2cnc(Nc3ccc(N4CCC5(CCNCC5)C4)cn3)nn2c1-c1ccc(Cl)cc1 [Example 43] | < 100 nM | 500 to 2500 nM
COCCOc1ccc(-c2c(C(=O)N(C)C)cc3cnc(Nc4ccc(N5CCNCC5)cn4)nn23)cc1 [Example 57] | < 100 nM | 500 to 2500 nM
N#Cc1cc2cnc(Nc3ccc(N4CCNCC4)cn3)nn2c1C1=CCCC1 [Example 25] | < 100 nM | < 500 nM
COc1ccc(-c2c(C#N)cc3cnc(Nc4ccc(N5CCNCC5)cc4)nn23)cc1 [Example 9] | < 100 nM | < 500 nM
CN(C)C(=O)c1cc2cnc(Nc3ccc(N4CCNCC4)cn3)nn2c1N1CCCC1 [Example 29] | < 100 nM | < 500 nM
COc1cc(F)ccc1-c1c(C(=O)N(C)C)cc2cnc(Nc3ccc(N4CC5(CNC5)C4)cn3)nn12 [Example 65] | < 100 nM | 2500 to 10000 nM
N#Cc1cc2cnc(Nc3ccc(N4CCNCC4)cc3)nn2c1-c1cccnc1 [Example 12] | < 100 nM | < 500 nM
Cn1cc(-c2cc3cnc(Nc4ccc(N5CCNCC5)cn4)nn3c2-c2ccncc2)cn1 [Example 54] | < 100 nM | 500 to 2500 nM
CN(C)C(=O)c1cc2cnc(Nc3ccc(N4CCC5(CC4)CNC5)cn3)nn2c1C1=CCCC1 [Example 41] | < 100 nM | < 500 nM
Cn1cc(-c2cc3cnc(Nc4ccc(N5CCNCC5)cn4)nn3c2C2=CCCC2)ccc1=O [Example 73] | < 100 nM | 500 to 2500 nM

The remaining lines, values ahead:

IC50 [1] | IC50 [2] | Compound
< 100 nM | 500 to 2500 nM | CN1CCN(c2ccc(Nc3ncc4cc(-c5cncnc5)c(C5=CCCC5)n4n3)nc2)CC1 [Example 98]
< 100 nM | < 500 nM | [2H]C([2H])([2H])N(C(=O)c1cc2cnc(Nc3ccc(N4CCN(C)CC4)cn3)nn2c1C1=CCCC1)C([2H])([2H])[2H] [Example 113]
< 100 nM | < 500 nM | [2H]C([2H])([2H])N(C(=O)c1cc2cnc(Nc3ccc(N4CCNCC4)cn3)nn2c1C1=CCCC1)C([2H])([2H])[2H] [Example 112]
< 100 nM | < 500 nM | [2H]C([2H])([2H])N(C(=O)c1cc2cnc(Nc3ccc(N4CCNCC4)cn3)nn2c1-c1ccc(OC)cc1)C([2H])([2H])[2H] [Example 117]
< 100 nM | < 500 nM | [2H]C([2H])([2H])N(C(=O)c1cc2cnc(Nc3ccc(N4CCN(C)CC4)cn3)nn2c1-c1ccccc1)C([2H])([2H])[2H] [Example 120]
< 100 nM | < 500 nM | [2H]C([2H])([2H])N1CCN(c2ccc(Nc3ncc4cc(C(=O)N(C)C)c(C5=CCOCC5)n4n3)nc2)CC1 [Example 106]
< 100 nM | < 500 nM | CN1CCN(c2ccc(Nc3ncc4cc(C(=O)N(C)C)c(C5=CCOCC5)n4n3)nc2)CC1 [Example 105]
1000 to 3000 nM | > 10000 nM | Cc1noc(C)c1-c1c(C(=O)N(C)C)cc2cnc(Nc3ccc(N4CC5(CCNC5)C4)cn3)nn12 [Reference Example 134, reference compound]
< 100 nM | 500 to 2500 nM | C1=C(c2c(-c3cncnc3)cc3cnc(Nc4ccc(N5CCC6(CCNCC6)CC5)cn4)nn23)CCC1 [Example 96]
< 100 nM | < 500 nM | [2H]C([2H])([2H])N(C(=O)c1cc2cnc(Nc3ccc(N4CCNCC4)cn3)nn2c1-c1ccccc1)C([2H])([2H])[2H] [Example 116]
< 100 nM | < 500 nM | CCn1cc(-c2cc3cnc(Nc4ccc(N5CCNCC5)cn4)nn3c2C2=CCCC2)cn1 [Example 86]
< 100 nM | < 500 nM | [2H]C([2H])([2H])N1CCN(c2ccc(Nc3ncc4cc(C(=O)N(C([2H])([2H])[2H])C([2H])([2H])[2H])c(-c5ccc(F)cc5)n4n3)nc2)CC1 [Example 125]
> 3000 nM | > 10000 nM | COC(=O)c1cc2cnc(Nc3ccc(N4CCNCC4)cn3)nn2c1-c1cccc2cccnc12 [Reference Example 132, reference compound]
100 to 1000 nM | 500 to 2500 nM | Cn1cc(-c2cc3cnc(Nc4ccc(N5CC6(CCNC6)C5)cn4)nn3c2C2=CCCC2)cn1 [Example 92]
< 100 nM | < 500 nM | C1=C(c2c(-c3cccnc3)cc3cnc(Nc4ccc(N5CCNCC5)cn4)nn23)CCC1 [Example 88]
< 100 nM | < 500 nM | CN(C)C(=O)c1cc2cnc(Nc3ccc(N4CCNCC4)cn3)nn2c1C1=CCOCC1 [Example 107]
< 100 nM | < 500 nM | [2H]C([2H])([2H])N1CCN(c2ccc(Nc3ncc4cc(C(=O)N(C)C)c(C5=CCCC5)n4n3)nc2)CC1 [Example 102]
< 100 nM | < 500 nM | Cc1ccc(-c2cc3cnc(Nc4ccc(N5CCNCC5)cn4)nn3c2C2=CCCC2)cn1 [Example 89]
< 100 nM | < 500 nM | Cc1n[nH]cc1-c1cc2cnc(Nc3ccc(N4CCNCC4)cn3)nn2c1C1=CCCC1 [Example 85]
100 to 1000 nM | 500 to 2500 nM | Cc1ccc(-c2cc3cnc(Nc4ccc(N5CCNCC5)cn4)nn3c2C2=CCCC2)s1 [Example 83]
< 100 nM | < 500 nM | C1=C(c2c(-c3ccncc3)cc3cnc(Nc4ccc(N5CCNCC5)cn4)nn23)CCC1 [Example 97]
< 100 nM | < 500 nM | [2H]C([2H])([2H])N1CCN(c2ccc(Nc3ncc4cc(C(=O)N(C([2H])([2H])[2H])C([2H])([2H])[2H])c(C5=CCCC5)n4n3)nc2)CC1 [Example 114]
